The values that follow come from patent US11459306B2, “Compounds, compositions, and methods for treating T-cell acute lymphoblastic leukemia” (The Trustees of Columbia University in the City of New York, priority 2017, dated 2022).

For data set [1], the system named is T-ALL. Description: Tumor burden and survival of mice with T-ALL. It counts as in vivo.
Data set [2] concerns mouse PTEN null/NOTCH activated T-ALL cell line. Nature of the data set: Gene set enrichment analysis of murine T-ALL disease signature after drug treatment. Type of data set: cell-based. To be noted: GSEA of T-ALL disease signature; 2.5 μM, 12 hours. On the procedure: This was also accomplished by generating gene expression signatures to assess the effects of drug treatment. Global gene expression profiles were obtained in triplicate using a mouse PTEN null/NOTCH activated T-ALL cell line driven by over expression of the transcription factor LMO2. […] Tumor cells were cultured in the presence of CAL-130 (2.5 μM) or the gamma-secretase inhibitor (GSI) Compound E (1 μM). Compound E blocks the activity of NOTCH1, which is also believed to support T-ALL tumor formation, proliferation, and survival. Drug treated cells were harvested at time points known to affect the expression of the proto-oncogene cMyc (12 hours and 48 hours, respectively), a master regulator of cell growth, metabolism and survival. A Venn diagram was created to illustrate the overlap in genes altered by either PI3Kγ/δ blockade (red circle) or GSI (green circle) using a false discovery rate (FDR) of 0.0005 as cut off (FIG. 1A). Of note, ten-fold more genes were affected following PI3Kγ/δ blockade, including the majority (˜62%) of genes altered by GSI monotherapy, a highly significant finding (Fisher's exact test, P<2.2×10^−16).
A murine T-ALL disease signature was further defined by ranking all genes based on their differential expression in T-ALL samples compared to wild type murine thymocytes. […]

In data set [3] the test system is human primary T-ALL cells. Nature of the data set: Akt phosphorylation and pro-apoptotic pathways in human primary T-ALL cells. Type of data set: cell-based.
Data set [4] addresses T1, PIK3CA (PI3Kα) (Homo sapiens, UniProt P42336).
T1 construct: purchased DiscoverX (KINOMEscan); host or cells: E. coli BL21-derived host (T7 phage) or HEK-293
Nature of the data set: KINOMEscan competition binding assay (DiscoverX). The note with it: DiscoveRx gene symbol PIK3CA (PI3Kα). The protocol: (§1) The compounds were tested using KINOMEscan™ (DiscoverX), which is based on a competition binding assay that quantitatively measures the ability of a compound to compete with an immobilized, active-site directed ligand. The assay is performed by combining three components: DNA-tagged kinase; immobilized ligand; and a test compound. The ability of the test compound to compete with the immobilized ligand is measured via quantitative PCR of the DNA tag.
(§2) For most assays, kinase-tagged T7 phage strains were prepared in an E. coli host derived from the BL21 strain. E. coli were grown to log-phase and infected with T7 phage and incubated with shaking at 32° C. until lysis. The lysates were centrifuged and filtered to remove cell debris. The remaining kinases were produced in HEK-293 cells and subsequently tagged with DNA for qPCR detection. Streptavidin-coated magnetic beads were treated with biotinylated small molecule ligands for 30 minutes at room temperature to generate affinity resins for kinase assays. The liganded beads were blocked with excess biotin and washed with blocking buffer (SeaBlock (Pierce), 1% BSA, 0.05% Tween 20, 1 mM DTT) to remove unbound ligand and to reduce non-specific binding. Binding reactions were assembled by combining kinases, liganded affinity beads, and test compounds in 1× binding buffer (20% SeaBlock, 0.17×PBS, 0.05% Tween 20, 6 mM DTT). Test compounds were prepared as 111× stocks in 100% DMSO. Kds were determined using an 11-point 3-fold compound dilution series with three DMSO control points. All compounds for Kd measurements are distributed by acoustic transfer (non-contact dispensing) in 100% DMSO. The compounds were then diluted directly into the assays such that the final concentration of DMSO was 0.9%. All reactions performed in polypropylene 384-well plate. Each was a final volume of 0.02 ml. The assay plates were incubated at room temperature with shaking for 1 hour and the affinity beads were washed with wash buffer (1×PBS, 0.05% Tween 20). The beads were then re-suspended in elution buffer (1×PBS, 0.05% Tween 20, 0.5 μM non-biotinylated affinity ligand) and incubated at room temperature with shaking for 30 minutes. The kinase concentration in the eluates was measured by qPCR.
(§3) An 11-point 3-fold serial dilution of each test compound was prepared in 100% DMSO at 100× final test concentration and subsequently diluted to 1× in the assay (final DMSO concentration=1%). Most Kds were determined using a compound top concentration=30,000 nM. If the initial Kd determined was <0.5 nM (the lowest concentration tested), the measurement was repeated with a serial dilution starting at a lower top concentration.
(§4) Binding constants (Kds) were calculated with a standard dose-response curve using the Hill equation: […]
(§5) The Hill Slope was set to −1. Curves were fitted using a non-linear least square fit with the Levenberg-Marquardt algorithm.

Data set [5] concerns the target T2, PIK3CB (PI3Kβ) (Homo sapiens, UniProt P42338).
T2 construct: purchased DiscoverX (KINOMEscan); host or cells: E. coli BL21-derived host (T7 phage) or HEK-293
Nature of the data set: KINOMEscan competition binding assay (DiscoverX). To be noted: DiscoveRx gene symbol PIK3CB (PI3Kβ). The protocol:
as §1, §2, §3, §4, §5

The target in data set [6] is T3, PIK3CD (Homo sapiens, UniProt O00329).
T3 construct: purchased DiscoverX (KINOMEscan); host or cells: E. coli BL21-derived host (T7 phage) or HEK-293
T3 sequence (O00329 1-1044): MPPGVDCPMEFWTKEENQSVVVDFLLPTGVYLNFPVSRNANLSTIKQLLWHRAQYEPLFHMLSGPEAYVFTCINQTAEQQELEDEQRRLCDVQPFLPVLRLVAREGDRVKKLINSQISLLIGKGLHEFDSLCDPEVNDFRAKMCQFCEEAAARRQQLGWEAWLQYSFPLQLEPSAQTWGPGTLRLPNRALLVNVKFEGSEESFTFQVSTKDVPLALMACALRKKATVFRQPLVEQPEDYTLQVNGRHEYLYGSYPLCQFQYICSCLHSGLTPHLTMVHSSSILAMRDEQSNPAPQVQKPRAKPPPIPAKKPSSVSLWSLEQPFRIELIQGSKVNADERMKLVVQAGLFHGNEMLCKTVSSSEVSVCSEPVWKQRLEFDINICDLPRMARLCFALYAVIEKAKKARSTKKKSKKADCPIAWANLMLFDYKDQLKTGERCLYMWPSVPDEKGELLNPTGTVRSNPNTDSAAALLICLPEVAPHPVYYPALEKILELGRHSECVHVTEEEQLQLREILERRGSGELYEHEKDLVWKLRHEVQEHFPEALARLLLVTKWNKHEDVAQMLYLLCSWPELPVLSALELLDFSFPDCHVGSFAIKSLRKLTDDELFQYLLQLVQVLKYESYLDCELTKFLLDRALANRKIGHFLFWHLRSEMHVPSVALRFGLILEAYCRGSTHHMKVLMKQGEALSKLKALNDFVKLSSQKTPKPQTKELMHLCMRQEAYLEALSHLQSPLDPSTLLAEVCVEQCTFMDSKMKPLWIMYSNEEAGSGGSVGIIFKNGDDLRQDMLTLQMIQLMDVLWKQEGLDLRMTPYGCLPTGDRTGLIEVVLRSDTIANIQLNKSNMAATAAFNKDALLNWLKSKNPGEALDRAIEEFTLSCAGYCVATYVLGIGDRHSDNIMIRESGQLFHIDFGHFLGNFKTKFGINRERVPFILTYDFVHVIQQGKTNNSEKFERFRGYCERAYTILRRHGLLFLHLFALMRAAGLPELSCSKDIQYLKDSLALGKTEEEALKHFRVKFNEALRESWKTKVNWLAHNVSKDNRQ
Description: KINOMEscan competition binding assay (DiscoverX). The note with it: DiscoveRx gene symbol PIK3CD (b251 prints: PI3Kγ). The protocol: as §1, §2, §3, §4, §5

Data set [7] concerns the target T4, PIK3CG (Homo sapiens, UniProt P48736).
T4 construct: purchased DiscoverX (KINOMEscan); host or cells: E. coli BL21-derived host (T7 phage) or HEK-293
Nature of the data set: KINOMEscan competition binding assay (DiscoverX). To be noted: DiscoveRx gene symbol PIK3CG (b251 prints: PI3Kδ). The protocol:
as §1, §2, §3, §4, §5

In data set [8] the test system is T-ALL cell line. Nature of the data set: T-ALL cell viability / cell death. It counts as cell-based, murine. The protocol:
Compounds DWL-PI3K-1, DWL-PI3K-2, DWL-PI3K-3, DWL-PI3K-4, DWL-PI3K-5, DWL-PI3K-6 and DWL-PI3K-7, and reference compounds CAL-130, tenalisib, duvelisib were evaluated for efficacy (cell viability by measuring ATP (CellTiter-Glo) or propidium iodide (PI) uptake) against a number of cancer cells, including LMO-2-007, OCI-LY-10, HH, H9, PF382 and CCRF-CEM.

For data set [9], the system named is T-ALL. Nature of the data set: Mice with genetically induced T-ALL expressing luciferase treated with DWL-PI3K-3. Type of data set: in vivo. To be noted: 10 mg/kg every 12 h for 7 days; luciferin signal and Ki67/thy1.2 positive population.
The nature of data set [10]: Pharmacokinetics relative to CAL-130. Type of data set: in vivo.

In general, Kd refers to the constant that tells how readily two partners part at equilibrium.

T4 sequence (P48736 whole entry): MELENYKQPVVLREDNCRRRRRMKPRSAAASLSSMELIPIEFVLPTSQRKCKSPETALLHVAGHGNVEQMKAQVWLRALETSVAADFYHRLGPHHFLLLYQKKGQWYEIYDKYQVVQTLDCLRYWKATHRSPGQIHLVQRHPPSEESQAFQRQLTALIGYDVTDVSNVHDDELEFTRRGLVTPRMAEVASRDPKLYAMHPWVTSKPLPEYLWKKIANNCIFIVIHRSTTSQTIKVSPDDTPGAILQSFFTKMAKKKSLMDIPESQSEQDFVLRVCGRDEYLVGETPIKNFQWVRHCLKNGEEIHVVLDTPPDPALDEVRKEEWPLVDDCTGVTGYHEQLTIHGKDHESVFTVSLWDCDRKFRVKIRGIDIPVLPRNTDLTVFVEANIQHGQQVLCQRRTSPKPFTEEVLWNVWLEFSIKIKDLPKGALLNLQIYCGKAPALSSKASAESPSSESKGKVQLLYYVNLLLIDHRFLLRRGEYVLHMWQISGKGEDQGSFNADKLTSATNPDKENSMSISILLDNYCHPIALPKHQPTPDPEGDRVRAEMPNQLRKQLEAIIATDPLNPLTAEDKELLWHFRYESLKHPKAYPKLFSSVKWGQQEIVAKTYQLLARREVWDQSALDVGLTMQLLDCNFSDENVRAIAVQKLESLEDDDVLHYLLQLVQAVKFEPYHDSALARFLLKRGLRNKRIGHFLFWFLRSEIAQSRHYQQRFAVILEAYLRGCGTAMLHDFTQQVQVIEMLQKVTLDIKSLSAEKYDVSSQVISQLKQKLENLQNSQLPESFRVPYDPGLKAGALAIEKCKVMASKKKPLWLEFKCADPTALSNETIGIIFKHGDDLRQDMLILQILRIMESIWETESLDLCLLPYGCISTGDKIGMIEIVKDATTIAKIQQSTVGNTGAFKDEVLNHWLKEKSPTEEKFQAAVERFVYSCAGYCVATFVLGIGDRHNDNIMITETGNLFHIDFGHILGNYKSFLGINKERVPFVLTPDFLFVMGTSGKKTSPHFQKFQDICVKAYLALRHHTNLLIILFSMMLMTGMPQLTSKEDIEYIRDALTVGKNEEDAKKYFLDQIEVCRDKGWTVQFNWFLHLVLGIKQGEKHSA
T2 sequence (P42338 whole entry): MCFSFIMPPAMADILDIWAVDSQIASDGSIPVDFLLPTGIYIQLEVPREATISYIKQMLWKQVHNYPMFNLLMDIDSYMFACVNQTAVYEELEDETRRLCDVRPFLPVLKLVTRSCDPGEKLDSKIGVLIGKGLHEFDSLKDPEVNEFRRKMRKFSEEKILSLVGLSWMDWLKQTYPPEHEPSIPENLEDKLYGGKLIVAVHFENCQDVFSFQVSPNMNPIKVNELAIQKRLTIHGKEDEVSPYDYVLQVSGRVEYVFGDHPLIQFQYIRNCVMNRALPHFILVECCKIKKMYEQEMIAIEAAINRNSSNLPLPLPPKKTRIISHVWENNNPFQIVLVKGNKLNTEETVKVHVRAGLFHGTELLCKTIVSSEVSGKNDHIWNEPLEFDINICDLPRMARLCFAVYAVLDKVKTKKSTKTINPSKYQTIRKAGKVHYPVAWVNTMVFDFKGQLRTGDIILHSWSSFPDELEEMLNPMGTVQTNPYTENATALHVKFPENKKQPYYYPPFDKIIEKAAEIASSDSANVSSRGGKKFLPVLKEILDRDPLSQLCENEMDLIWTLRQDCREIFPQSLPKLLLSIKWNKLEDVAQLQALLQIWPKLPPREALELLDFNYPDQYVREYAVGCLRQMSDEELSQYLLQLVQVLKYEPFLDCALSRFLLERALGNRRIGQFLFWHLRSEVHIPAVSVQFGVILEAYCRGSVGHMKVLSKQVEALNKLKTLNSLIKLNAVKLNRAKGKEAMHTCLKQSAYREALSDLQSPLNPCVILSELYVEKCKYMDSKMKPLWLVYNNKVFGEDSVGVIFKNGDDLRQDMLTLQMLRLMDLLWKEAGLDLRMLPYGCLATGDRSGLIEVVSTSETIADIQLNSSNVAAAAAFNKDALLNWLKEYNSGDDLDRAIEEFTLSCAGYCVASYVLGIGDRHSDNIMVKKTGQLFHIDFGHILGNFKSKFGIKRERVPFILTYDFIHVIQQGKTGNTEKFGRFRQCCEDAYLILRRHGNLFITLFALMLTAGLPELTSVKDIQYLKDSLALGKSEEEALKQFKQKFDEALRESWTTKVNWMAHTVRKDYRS
T1 sequence (P42336 whole entry): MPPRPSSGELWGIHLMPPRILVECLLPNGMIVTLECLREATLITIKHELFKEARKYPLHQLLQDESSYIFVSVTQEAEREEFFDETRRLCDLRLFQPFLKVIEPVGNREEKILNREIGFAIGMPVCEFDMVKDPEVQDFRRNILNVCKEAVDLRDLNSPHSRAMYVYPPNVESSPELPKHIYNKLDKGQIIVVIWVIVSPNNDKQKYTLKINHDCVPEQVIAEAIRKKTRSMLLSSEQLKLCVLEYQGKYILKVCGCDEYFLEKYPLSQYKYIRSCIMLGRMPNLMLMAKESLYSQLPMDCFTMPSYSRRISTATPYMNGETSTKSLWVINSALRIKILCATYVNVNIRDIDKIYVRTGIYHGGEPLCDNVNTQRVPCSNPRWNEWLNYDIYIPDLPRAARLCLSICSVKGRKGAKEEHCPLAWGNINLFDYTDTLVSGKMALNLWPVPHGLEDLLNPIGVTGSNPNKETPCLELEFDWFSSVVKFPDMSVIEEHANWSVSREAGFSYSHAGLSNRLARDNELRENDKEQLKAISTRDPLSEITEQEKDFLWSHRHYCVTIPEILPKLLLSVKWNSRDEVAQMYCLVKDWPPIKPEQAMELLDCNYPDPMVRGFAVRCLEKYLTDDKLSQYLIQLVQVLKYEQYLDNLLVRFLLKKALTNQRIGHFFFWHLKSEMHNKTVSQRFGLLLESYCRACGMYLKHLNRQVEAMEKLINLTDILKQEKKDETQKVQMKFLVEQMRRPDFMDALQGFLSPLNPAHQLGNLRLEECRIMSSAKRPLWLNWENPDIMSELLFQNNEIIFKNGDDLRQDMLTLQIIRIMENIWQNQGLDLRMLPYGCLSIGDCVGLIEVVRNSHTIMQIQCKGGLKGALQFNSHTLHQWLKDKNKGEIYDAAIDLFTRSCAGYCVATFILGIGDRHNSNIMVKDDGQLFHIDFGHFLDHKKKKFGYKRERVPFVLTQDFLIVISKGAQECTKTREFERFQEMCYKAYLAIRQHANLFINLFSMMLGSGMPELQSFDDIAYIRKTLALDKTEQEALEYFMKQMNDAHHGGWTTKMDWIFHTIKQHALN

`Cc1ccccc1-n1c([C@H](C)Nc2nc(N)nc3[nH]cnc23)nc2cccc(C)c2c1=O` [CAL-130]: the “effect on tumor burden and survival” value in data set [1] is “significantly reduced tumor burden and prolonged survival of diseased mice”. For the same compound, the mean survival in data set [1] (10 mg/kg tid) came to 45 days. Further, in [2], the “normalized enrichment score (NES)” value is recorded as −5.8. The “Akt phosphorylation and pro-apoptotic pathways” value in [3] was “abolished Akt phosphorylation and activated pro-apoptotic pathways”.

Consider `C[C@H](Nc1nc(N)nc(N)c1C#N)c1cc2cccc(Cl)c2c(=O)n1-c1ccccc1` [DWL-PI3K-3, (S)-2,4-diamino-6-((1-(8-chloro-1-oxo-2-phenyl-1,2-dihydroisoquinolin-3-yl)ethyl)amino)pyrimidine-5-carbonitrile], for which the Kd in data set [4] amounted to 4 nM; in data set [5], 0.084 nM; in data set [6], 0.14 nM; in [7], 0.12 nM. The “efficacy in inducing T-ALL cell death relative to CAL-130” value in data set [8] (cultured T-ALL cells) is reported as “greater efficacy than CAL-130”. Also, the “amount needed relative to CAL-130 to achieve a similar reduction in tumor cell survival” value in [8] (relative to CAL-130) was “about 10 fold less”. For the same compound, the tumor burden entry in [9] is given as “significant reduction in tumor burden”. Besides, in data set [10], the pharmacokinetics entry is given as “better pharmacokinetics”.
